According to patent US6103709A (priority 1998, dated 2000):

Columns and labels:
VDRmem = experiment: Rapid response (summary classification); details: for Rapid Response: Yes/No, Tables 1 and 6
Description: (§1) Table 6 identifies biological properties, such as genomic response, rapid response, agonist or antagonist function, binding of the analog to the vitamin binding protein (expressed as RCI), binding to the nuclear 1α,25(OH)2 D3 receptor (expressed as RCI) rapid response (expressed as % transcaltachia the rapid hormonal stimulation of intestinal calcium absorption) the classic vitamin D responses such as intestinal Ca^2+ absorption (ICA) and bone Ca^2+ mobilizing activity (BCM) determined in vivo in a vitamin D-deficient chick, and cell differentiation (expressed as % ED50), an assessment of the ability to promote the nuclear response of cell differentiation.

[1] = tested on: vitamin D-deficient chick; experiment: Intestinal Ca2+ absorption (ICA) in vitamin D-deficient chick; format: in vivo; details: i.m.; for Classic Vit D Responses ICA: relative to 100 pmol 1α,25(OH)2 D3 = 100%, 12 h before assay; for ICA (in words): vitamin D-deficient chick
Method: A primary fundamental physiological property of vitamin D and particularly 1α,25(OH)2 D3 is its ability to stimulate the intestinal absorption of calcium and facilitate the availability of dietary calcium to the organism. Intestinal absorption of the calcium is measured by the intestinal calcium absorption (ICA) assay, developed in the model of vitamin-D deficient chicks. The ICA assay was used to determine the relative capability of the tested analog to stimulate intestinal Ca^2+ absorption.
(§2) Results of the testing of the analogs of the invention in vivo by the ICA and IBM assays are shown in FIG. 9 which illustrates the capability of analogs LO, EV and HR to stimulate intestinal Ca^2+ absorption (ICA) and bone Ca^2+ mobilizing activity (BCM). In this study, the analogs of 1α,25(OH) were given i.m. to vitamin D-deficient chicks 12 hours before the assay began. The activity produced by 100 pmol of 1α,25(OH)2 D3 was set to be 100% for both ICA and BCM. The dose of the analogs required to achieve a biological response for either ICA or BCM equivalent to the 100 pmol dose of 1α,25(OH)2 D3 was calculated and converted to a percentage. Results are expressed as mean +SE of groups of seven chicks. Each assay included a negative control (-D), that is no vitamin D was present, and a positive control, where vitamin D3 (+D3) was present in 3.25 nmol. […] 1α,25(OH)2 D3 and analogs LO [14α,15α-methano-1α,25(OH)2 D3 ], EV [22-(m(dimethylhydroxymethyl)phenyl)-23,24,25,26,27-pentanor-1α-OH-D3 ] and HR [(22R)-1,25(OH)2 -22,23-diene-D3 ] were administered in 0.0065, 0.065, 0.65 and 6.5 nmol as shown.
(§3) In Vivo Assays of Intestinal Calcium Absorption and Bone Calcium Mobilization
(§4) This example describes assays used for determination of analogs biological activity in intestinal calcium absorption (ICA) and bone calcium mobilization (BCM) assays.
(§5) ICA and BCM were measured in vivo in the vitamin D-deficient chick model system according to Biochem. Pharmacol., 18: 2347 (1969).
(§6) Twelve hours before assay, the chickens, which had been placed on a zero-calcium diet 48 h before assay, were injected intramuscularly with the vitamin metabolite 1α,25(OH)2 D3 or analog (1-10,000 pmoles) dissolved in 0.1 mL of ethanol/1,2-propanediol (1:1, v/v). At the time of assay, 4.0 mg of ^40 Ca^2+ +5 μCi of ^45 Ca^2+ (New England Nuclear) were placed in the duodenum of the birds lightly anesthetized with ether. After 30 min, the birds were decapitated and the blood was collected.
The radioactivity content, which is a measure of ICA, of 0.2 mL of serum was measured in a liquid scintillation counter (Beckman LS8000) to determine the amount of ^45 Ca^2+ absorbed.

rapid responses (VDRmem) = experiment: Antagonist function (summary classification); details: Yes/No, Tables 1 and 6
Description: as §1

[2] = tested on: vitamin D-deficient chick; experiment: Bone Ca2+ mobilizing activity (BCM) in vitamin D-deficient chick; format: in vivo; details: i.m.; for Classic Vit D Responses BCM: relative to 100 pmol 1α,25(OH)2 D3 = 100%, 12 h before assay; for BCM (in words): vitamin D-deficient chick
Method: The bone calcium mobilizing (BCM) assay is also conducted in the vitamin D-deficient chick. The BCM assay determines the relative ability of the tested analog to mobilize bone calcium. The natural hormone 1α,25(OH)2 D3 is very potent in the BCM assay. For example, when 1α,25(OH)2 D3 in inappropriate amounts are used as a drug in human patients, the patient may become hypercalcemic and eventually hypercalciuria with nephrolithiasis and renal failure may develop. The BCM assay was used to determine the relative activity of the analogs of the invention to stimulate bone Ca^2+ mobilization.
as §2, §3, §4, §5, §6
BCM activity was estimated from the increase of total serum calcium concentration, as determined by atomic absorption spectrophotometry.

VDRnuc = experiment: Genomic response (summary classification); details: Yes/No, Tables 1 and 6
Description: as §1

[3] = target: T1, human vitamin D-binding protein (hDBP) (Homo sapiens, UniProt P02774); experiment: Relative Competitive Index assay, vitamin D-binding protein; details: for Vit D Binding Protein (RCI): RCI of 1α,25(OH)2 D3 set to 100, 4° C., pH 7.4; for Binding to DBP relative to 1α,25(OH)2 D3 (RCI, FIG. 7): 1α,25(OH)2 D3 = 100%, mean of three determinations; for DBP binding (in words): compared with 1α,25(OH)2 D3
T1 sequence (P02774 17-474): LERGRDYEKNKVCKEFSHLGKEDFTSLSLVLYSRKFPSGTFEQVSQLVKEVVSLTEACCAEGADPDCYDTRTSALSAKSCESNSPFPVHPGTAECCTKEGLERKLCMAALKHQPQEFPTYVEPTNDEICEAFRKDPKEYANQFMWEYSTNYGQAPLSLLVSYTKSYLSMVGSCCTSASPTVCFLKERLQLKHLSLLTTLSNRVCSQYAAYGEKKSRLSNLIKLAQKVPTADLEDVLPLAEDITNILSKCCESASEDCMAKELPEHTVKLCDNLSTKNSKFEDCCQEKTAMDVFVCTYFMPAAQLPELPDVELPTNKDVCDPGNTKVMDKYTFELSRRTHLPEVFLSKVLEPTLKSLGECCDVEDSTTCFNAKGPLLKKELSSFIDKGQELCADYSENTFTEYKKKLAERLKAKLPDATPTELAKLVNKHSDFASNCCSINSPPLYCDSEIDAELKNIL
Description: The compared analogs are 14α,15α-methano-1α,25(OH)2 D3 (LO), 22(m(dimethylhydroxymethyl)phenyl)-23,24,25,26,27-pentanor-1α- OH-D3 (EV) and (22R)-1,25(OH)2 -22,23,diene-D3 (HR), all conformationally flexible genomic agonists. By definition the RCI for 1α,25(OH)2 D3 is set to 100%. The data seen in FIG. 7 represent the mean of three determinations.
Vitamin D-Binding Protein Assay Relative Competitive Index
This example describes a Relative Competitive Index Assay used for determination of analogs binding affinity to vitamin D-binding protein.
Phase separation was then obtained by the addition of 0.5 ml of cold dextran-coated charcoal.
The data was plotted as [competitor]/[[^3 H]25(OH)D3 ] vs. 1/[fraction bound]. The RCI was calculated as [slope of competitor]/[slopefor 25(OH)D3 ]×100. Results are seen in FIG. 7. Although each analog was assayed in competition with [^3 H]25(OH)D3, the data are expressed as relative to the binding of 1α,25(OH)2 D3, with its RCI set to 100.

Compound | Rapid Response (VDRmem) | Classic Vit D Responses ICA [1] | ICA (in words) [1] | Antagonist (rapid responses (VDRmem)) | Classic Vit D Responses BCM [2] | BCM (in words) [2] | Genomic Response (VDRnuc) | Vit D Binding Protein (RCI) [3] | Binding to DBP relative to 1α,25(OH)2 D3 (RCI, FIG. 7) [3] | DBP binding (in words) [3] | genomic and/or rapid responses elicited (in words) (VDRmem)
C=C1/C(=C\C=C2/CCC[C@]3(C)[C@@H]([C@H](C)Cc4cccc(O)c4)CC[C@@H]23)C[C@@H](O)C[C@@H]1O [DE] | Yes | 0.3% | show stimulating activity in both ICA and BCM assays | No | 1.0% | show stimulating activity in both ICA and BCM assays | Yes | 980 |  |  | 
C=C1/C(=C\C=C2/CCC[C@]3(C)[C@@H]([C@H](C)Cc4ccc(O)cc4)CC[C@@H]23)C[C@@H](O)C[C@@H]1O [DF] | Yes | 0.04% |  | No | 0.08% |  | Yes | 1980 |  |  | 
C=C1/C(=C\C=C2/CCC[C@]3(C)[C@@H]([C@H](C)Cc4cccc(C(C)(C)O)c4)CC[C@@H]23)C[C@@H](O)C[C@@H]1O [EV] | Yes | 30% | show stimulating activity in both ICA and BCM assays | No | 8% | show stimulating activity in both ICA and BCM assays | Yes | 25 | 25% | lower than 1α,25(OH)2 D3 | 
CC1=C(/C=C\C2=CCC[C@@]3(C)[C@@H]2CC[C@@H]3[C@H](C)CCCC(C)(C)O)C[C@@H](O)C[C@@H]1O [GF] | Yes | 1.5% |  | No | < 0.1% |  | Yes | 2 |  | lower than 1α,25(OH)2 D3 | 
C=C1/C(=C\C=C2/CCC[C@]3(C)[C@@H]([C@H](C)CCCC(C)(C)O)CC[C@@H]23)C[C@@H](O)C[C@H]1O [HL] | No | < 0.1% |  | Yes and blocks or inhibits the action of agonist for rapid responses | < 0.3% |  | No |  |  |  | 
C=C1/C(=C\C=C2/CCC[C@]3(C)[C@@H]([C@H](C)C=C=CC(C)(C)O)CC[C@@H]23)C[C@@H](O)C[C@@H]1O [HQ] | Yes | 2.5% |  | No | 1.0% |  | Yes | 11 |  | lower than 1α,25(OH)2 D3 | 
C=C1/C(=C\C=C2/CCC[C@]3(C)[C@@H]([C@H](C)C=C=CC(C)(C)O)CC[C@@H]23)C[C@@H](O)C[C@@H]1O [HR] | Yes | 12% |  | No | 0.6% |  | Yes | 48 | 48% | lower than 1α,25(OH)2 D3 | 
C[C@H](CCCC(C)(C)O)[C@H]1CC[C@H]2C3=CC=C4C[C@@H](O)C[C@H](O)[C@]4(C)[C@H]3CC[C@]12C [JM] | Yes | 1.8% |  | No | 0.8% |  | No | -0.3 |  | lower than 1α,25(OH)2 D3 | elicit solely rapid responses
C[C@H](CCCC(C)(C)O)[C@H]1CC[C@H]2C3=CC=C4C[C@@H](O)C[C@H](O)[C@@]4(C)[C@@H]3CC[C@]12C [JN] | Yes | 2.1% |  | No | 1.0% |  | No | -0.7 |  | lower than 1α,25(OH)2 D3 | elicit solely rapid responses
C[C@H](CCCC(C)(C)O)[C@H]1CC[C@H]2C3=CC=C4C[C@@H](O)C[C@H](O)[C@@]4(C)[C@H]3CC[C@]12C [JO] | Yes | 0.6% |  | No | 0.03% |  | No | 2.0 |  | lower than 1α,25(OH)2 D3 | elicit solely rapid responses
